Active and inactive are the calls of the source. The rule behind the calls is not given here.
These molecules were tested against Ubiquitin-conjugating enzyme E2 N (Homo sapiens) (UniProt P61088) (assay: UBE2N binders by NMR, biophysical, purified protein (AID 1552)). Details: NMR binding to purified UBE2N.
Chain of Ubiquitin-conjugating enzyme E2 N (Homo sapiens) (P61088 whole entry, looked up): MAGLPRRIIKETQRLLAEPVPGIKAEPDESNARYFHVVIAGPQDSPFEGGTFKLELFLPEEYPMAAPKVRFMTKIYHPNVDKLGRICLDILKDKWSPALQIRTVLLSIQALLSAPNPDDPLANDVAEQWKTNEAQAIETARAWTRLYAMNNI
For `COc1cc([C@H]2Oc3cc([C@H]4Oc5cc(O)cc(O)c5C(=O)[C@@H]4O)ccc3O[C@@H]2CO)ccc1O`, the Kd was > 4 mM (inactive).
For `c1ccc(-n2cnnc2)nc1`, the Kd was > 4 mM (inactive).
`c1nnc2c3c4c(sc3ncn12)CCCC4` was tested, and the Kd was > 4 mM (inactive).
For `Cc1noc(C)c1C(=O)N1CCc2ccccc21`, the Kd was > 4 mM (inactive).
In the case of `CC(C)=CCC1=C(O)c2ccccc2C(=O)C1=O`, the Kd is reported as > 4 mM (inactive).
For `CCOC(=O)C1CN(C)CCN1C` (stereo unspecified), the Kd was > 4 mM (inactive).
For `Cc1cc(C(=O)NCc2cccnc2)cs1`, the Kd was > 4 mM (inactive).
For `c1ccc(C[N+]23CCN(CC2)c2ccccc23)cc1`, the Kd was > 4 mM (inactive).
For `Cc1[nH]c2ccccc2c1C(=O)CSc1ncn[nH]1`, the Kd was > 4 mM (inactive).
With `COc1ccc(-c2coc3c(O)c(OC)ccc3c2=O)cc1` the Kd was > 4 mM (inactive).
For `C=C1CCC2[C@](C)(CO)[C@H](O)CC[C@@]2(C)[C@@H]1C/C=C1/C(=O)OC[C@H]1O` (stereo partly specified), the Kd was > 4 mM (inactive).
In the case of `Cc1occc1C(=O)Nc1cc(C(C)(C)C)on1`, the Kd is reported as > 4 mM (inactive).
In the case of `Cc1ccc(S(=O)(=O)CC(=O)N2CCCC2)cc1`, the Kd is reported as > 4 mM (inactive).
In the case of `c1cc(C(N2CCOCC2)N2CCOCC2)ccn1`, the Kd is reported as > 4 mM (inactive).
In the case of `Cc1ccc(N)nc1`, the Kd is reported as > 4 mM (inactive).
`CC(=O)Nc1c(C#N)c(C(C)(C)C)cn1C` was tested, and the Kd was > 4 mM (inactive).
In the case of `CN1CCCn2c1nc1c2c(=O)[nH]c(=O)n1C`, the Kd is reported as > 4 mM (inactive).
In the case of `O=C(NC1CCS(=O)(=O)C1)c1ccccc1` (stereo unspecified), the Kd is reported as > 4 mM (inactive).
For `CCOC(=O)c1[nH]cnc1C(=O)OC(C)C`, the Kd was > 4 mM (inactive).
`O=c1c2ccccc2[nH]c2ncccc12` was tested, and the Kd was > 4 mM (inactive).
`O=C(O)Cn1cc(C(F)(F)F)ccc1=O` was tested, and the Kd was > 4 mM (inactive).
With `Cc1nn2c(-c3ccncc3)nnc2c2ccccc12` the Kd was > 4 mM (inactive).
With `O=C(CN1CCOCC1)Nc1cccc(Br)c1` the Kd was > 4 mM (inactive).
With `Nc1ccc(CCC(=O)O)cc1` the Kd was > 4 mM (inactive).
For `COC(=O)CCSCC(=O)Nc1nnc(C)s1`, the Kd was > 4 mM (inactive).
With `O=C1CCCN1C(=O)c1ccc(F)cc1` the Kd was > 4 mM (inactive).
For `Clc1ccc(-c2nnc3ccccn23)cc1`, the Kd was > 4 mM (inactive).
For `O=S1(=O)CCC(NC(=S)N2CCCCC2)C1` (stereo unspecified), the Kd was > 4 mM (inactive).
For `CC(C)c1ccc2c(c1)CCC1[C@](C)(CN)CCC[C@]21C` (stereo partly specified), the Kd was > 4 mM (inactive).
With `O=C(O)CN1C(=O)c2ccc(C(=O)O)cc2C1=O` the Kd was > 4 mM (inactive).
In the case of `Cc1nnc(N2CCN(c3ccccc3)CC2)[nH]c1=O`, the Kd is reported as > 4 mM (inactive).
`OCc1ccc2c(c1)OCO2` was tested, and the Kd was > 4 mM (inactive).
With `O=C(c1ccccc1)c1ccccc1C(=O)N1CCOCC1` the Kd was > 4 mM (inactive).
With `C=CCc1ccc(OC(=O)c2ccccc2)c(OC)c1` the Kd was > 4 mM (inactive).
`Cc1nc2ccccc2c(=O)n1-c1cccc(O)c1` was tested, and the Kd was > 4 mM (inactive).
In the case of `N=Cc1c(O)n(-c2cccc(Cl)c2)c(=O)[nH]c1=O`, the Kd is reported as > 4 mM (inactive).
`Cc1n[nH]c(C)c1NC(=O)c1cccc(F)c1` was tested, and the Kd was > 4 mM (inactive).
In the case of `CN1CCN(c2ccc(N)cc2)CC1`, the Kd is reported as > 4 mM (inactive).
In the case of `COCc1nc(-c2cc(Br)ccc2OC)no1`, the Kd is reported as > 4 mM (inactive).
With `O=C(O)CNS(=O)(=O)c1cccs1` the Kd was > 4 mM (inactive).
In the case of `O=C(OCc1c(F)cccc1Cl)c1cnccn1`, the Kd is reported as > 4 mM (inactive).
In the case of `COc1ncnc(N)c1[N+](=O)[O-]`, the Kd is reported as > 4 mM (inactive).
With `C[C@@H]1C(=O)O[C@H]2[C@H]1CC[C@@]1(C)C=CC(=O)[C@@]3(C)O[C@@]213` the Kd was > 4 mM (inactive).
In the case of `O=C1CCCCCN1CO`, the Kd is reported as > 4 mM (inactive).
For `CC(=O)Oc1ccc(O)cc1`, the Kd was > 4 mM (inactive).
In the case of `COc1ccc(-c2nnc(-c3ccc(N)cc3)o2)cc1`, the Kd is reported as > 4 mM (inactive).
With `CCC(C)C(=O)OC1[C@@H]2CC3=C4CC(=O)O[C@@H](c5ccoc5)[C@]4(C)CCC3C(C)(C2=O)[C@@H](CC(=O)OC)C1(C)C` (stereo partly specified) the Kd was > 4 mM (inactive).
With `COC(=O)Cc1csc(N)n1` the Kd was > 4 mM (inactive).
For `CC(=O)Oc1ccc(-c2cc(=O)c3c(OC(C)=O)cc(OC(C)=O)cc3o2)cc1`, the Kd was > 4 mM (inactive).
With `COc1cc2c3cc1Oc1c(OC)c(OC)cc4c1[C@@H](Cc1cccc(c1)Oc1ccc(c(O)c1)C[C@@H]3N(C)CC2)N(C)CC4` the Kd was > 4 mM (inactive).
In the case of `CC(=O)N1CC2(C)CN(C(C)=O)CC(C)(C1)C2`, the Kd is reported as > 4 mM (inactive).
With `O=C(NC(=S)NCc1cccnc1)c1ccco1` the Kd was > 4 mM (inactive).
In the case of `CCC(CCC(C)[C@H]1CCC2C3CC=C4C[C@@H](O)CC[C@]4(C)C3CC[C@@]21C)C(C)C` (stereo partly specified), the Kd is reported as > 4 mM (inactive).
`Cc1cc(=O)oc2cc(O)c(O)cc12` was tested, and the Kd was > 4 mM (inactive).
For `O=C1CC(c2c[nH]c3ccccc23)C(=O)N1` (stereo unspecified), the Kd was > 4 mM (inactive).
For `C(=Nn1cnnc1)c1ccccc1`, the Kd was > 4 mM (inactive).
With `CCN1CCC(=NO)CC1` the Kd was > 4 mM (inactive).
With `O=C(CCc1ccc(O)cc1)c1c(O)cc(O)cc1O` the Kd was > 4 mM (inactive).
With `CNS(=O)(=O)c1cc(OC)ccc1OC` the Kd was > 4 mM (inactive).
In the case of `NC(=O)Cn1cnc2c(cnn2-c2ccccc2)c1=O`, the Kd is reported as > 4 mM (inactive).
With `Cn1cnc([N+](=O)[O-])c1Sc1ncnc2nc[nH]c12` the Kd was > 4 mM (inactive).
